# Patent publication US5369111A, “Modulator agent and use thereof” (University of Vermont, priority 1992, dated 1994)
# Key:
# [1] = system: parental cell lines (S180, RCC-2, RCC-5); experiment: Modulation of intrinsic resistance in the parental cell lines (S180, RCC-2, RCC-5); type: cell-based, mouse, rat
# Method: (§1) Mid-exponential cultures were used for all assays. The RCC-2 and RCC-5 cell lines were seeded into 24-well plates at 2×10^4 cells/well and allowed to attach to the substratum for 16-18 h prior to treatment. The S180 cell lines were seeded into culture tubes at 1×10^5 cells/ml and treated immediately. Cytotoxicity was determined by quantitation of population growth after 72 h incubation by electronic particle counter (Coulter Electronics, Hialeah, Fla.). The human tumor cell lines were used in a clonogenic assay for cytotoxicity. Cells were seeded at 300 cells/dish, incubated overnight and then treated. Colonies were scored 7-11 days later. In all assays of analog modulation of drug sensitivity, the analog was added minutes prior to the addition of cytotoxic drug.
# (§2) *calculated as the IC50 of the drug alone divided by the IC50 o
# (§3) the [drug modulator] combination. Data are presented from tretments with
# (§4) the nontoxic concentration limit of each analog as noted.
# [2] = system: S180 MDR cell strains A3 and A10; experiment: Modulation of acquired drug resistance in the S180 MDR cell strains A3 and A10; type: cell-based, murine; details: VBL
# Method: as §1
# (§5) To evaluate the ability of vindoline and the two diastereoisomeric VBL analogs to modulate the MDR phenotype (acquired resistance) of the A3 and A10 cell stains, we determined the concentration of compound required to restore drug sensitivities to parental levels. This was done by exposing the MDR cell line to a concentration range of modulator in the presence VBL, VCR and ADM at the respective IC70s of the parental cell line. The cytotoxicity curves for A3 and A10 cells, shown in FIG. 5, are distinctive among the three vinca alkaloids examined. In each cell line, there was a minimum concentration of modulator that elicited 70% growth inhibition for each drug - i.e. the reversing concentration.
# FIG. 5 represents the modulation of multidrug resistance in the MDR cell strains by the vinca alkaloids. Vindoline (A), vincovaline (B), or the analog C-20'-deoxy vincovaline (C) was added, at various concentrations, to A3 (closed symbols) or A10 (opened symbols) cell cultures containing the parental IC70 of each drug: 2.0×10^-7 M. ADM (circles: 1.5×10^-8 M VBL (triangles); and 4.5×10^-8 M; VCR (squares). Population growth was determined 72 hours later.
# FIG. 6 represents the relationship between cellular drug resistance level and the minimal modulator concentration required for complete reversal of drug resistance. The drugs examined were ADM (o), VBL (Δ), and VCR (.quadrature.). The amount (concentration) of modulator, necessary to reverse each level of drug resistance contained in the A3 and A10 cell lines, was determined from data such as those of FIG. 5. The values presented were averaged from duplicate samples of two separate experiments, S.D.<15% of the mean. The arrows denote the non-toxic concentration limit for the modulator; in the case of Vincovaline this value is dependent on the MDR cell strain, 2×10^-5 M, A3; 5×10^-5 M. A10.
# FIG. 11 represents the modulation of multidrug resistance in the S180 MDR cell strains A3 and A10. The cellular drug resistance level is plotted against the minimal concentration of C-20'-deoxy deethyl vincovaline required for the complete reversal of drug resistance to ADM (o), VBL (Δ), and VCR (.quadrature.). In the case of high level ADM resistance […], the sensitivity of the cells was restored to 80% of the parental value. The arrow denotes the non-toxic concentration limit of the analog.
# [3] = Inhibition of population growth (cytotoxicity), rat colon adenocarcinoma RCC-5; type: cell-based; details: rat, rcc-5 cells; RCC-5; Table III; read-out: Modulator concentration (nontoxic concentration limit of the analog)
# Description: (§6) The analogs were examined in a panel of tumor cell lines of both intrinsic and acquired drug resistance, as described in Table 1. The rat colon adenocarcinoma cell lines RCC-2 and RCC-5 (ref. 13) were maintained in Ham's F12 medium supplemented with 5% heat-inactivated, fetal bovine serum (Sterile Systems. Hyclone, Logan, Utah). The two rat colon cancer cell lines differ in their degree of cellular differentiation; whereas the RCC-2 cell line is undifferentiated, the RCC-5 cell line is highly mucinous. The human epidermoid carcinoma cell line KB-3-1 and its MDR variant KB-Vl, selected by VBL treatment (ref. 14; courtesy of M. Gottesman. National Cancer Institute), was maintained in DMEM medium supplemented with 10%, heat-inactivated, fetal bovine serum. The murine sarcoma cell line […] and its MDR strains A3 and A10 selected by ADM treatment (ref. 15; courtesy of T. Tritton, Dept. Pharmacology, Univ. Vermont). were maintained in DMEM medium supplemented with 10% heat-inactivated, horse serum (Hazelton Biolog. Lenexa, Kans.). Stock cultures were subcultured twice weekly upon reaching the late exponential phase of population growth: population doubling times were 18-24 h. Antibiotics were not used in stock or experimental cultures. The MDR cell strains were grown in drug-free media for 48 h prior to experimental use.
# as §1
# RCC-2 cells = experiment: Modulation of intrinsic drug resistance, RCC-2; type: cell-based, rat; details: IC50 drug alone / IC50 drug + modulator, at nontoxic concentration limit
# Method: as §1, §2, §3, §4
# S180/A10 cells = experiment: Modulator potency in MDR cells: reversal of acquired resistance, S180/A10; type: cell-based, murine; details: for Modulator potency in MDR cells (minimal concentration restoring parental drug sensitivity), ADM: drug resistance level 90; for Modulator potency in MDR cells (minimal concentration restoring parental drug sensitivity), VBL: drug resistance level 10
# Method: as §1, §5
# (§7) *The minimal concentration of modulator required to restore the drug
# (§8) sensitivity of S180/MDR cell strains to that of parental S180 cells. Data
# (§9) are the averages of 2-3 separate experiments, S.D. ≤20%.
# [4] = Inhibition of population growth (cytotoxicity), rat colon adenocarcinoma RCC-2; type: cell-based; details: rat, rcc-2 cells; RCC-2; Table III; read-out: Modulator concentration (nontoxic concentration limit of the analog)
# Description: as §6, §1
# [5] = Inhibition of population growth (cytotoxicity), S180 sarcoma, parental; type: cell-based, mouse; details: mouse, s180 cells; S180; Table III; read-out: Modulator concentration (nontoxic concentration limit of the analog)
# Description: as §6, §1
# RCC-5 cells = experiment: Modulation of intrinsic drug resistance, RCC-5; type: cell-based, rat; details: RCC-5; IC50 drug alone / IC50 drug + modulator, at nontoxic concentration limit
# Method: as §1, §2, §3, §4
# FIG. 9 represents the modulation of VCR sensitivity in the RCC-12 (A) and RCC-5 (B) cell lines by the analog C-20'-deoxy deethyl vincovaline. Population growth was determined after 72 hours incubation in the absence (o), or presence of 10 μM (o), 20 μM (Δ), or 50 μM of analog. Data presented are from a typical experiment.
# S180/A3 cells = experiment: Modulator potency in MDR cells: reversal of acquired resistance, S180/A3; type: cell-based, murine; details: for Modulator potency in MDR cells (minimal concentration restoring parental drug sensitivity), VBL: drug resistance level 3; for Modulator potency in MDR cells (minimal concentration restoring parental drug sensitivity), VCR: drug resistance level 7
# Method: as §1, §5, §7, §8, §9
# [6] = system: S180/MDR cell system and rat colon cancer cell lines; experiment: Cytotoxicity in the S180/MDR cell system and the rat colon cancer cell lines; type: cell-based, mouse; details: S-180, 72 h
# Description: as §6, §1
# S180 cells, parental = experiment: Modulation of intrinsic drug resistance, parental S180; type: cell-based, murine; details: S180; IC50 drug alone / IC50 drug + modulator, at nontoxic concentration limit
# Method: as §1
# The ability of the compounds to modulate drug sensitivity in parental cells was studied over a range of concentrations of each compound, from 10^-6 M to the non-toxic (IC10-20) or solubility limit. […] From such experiments, we determined a sensitivity index derived from the IC50 of the drug without modulator treatment divided by the drug IC50 at each concentration of modulator.
# When the sensitivity index for each drug, VBL, VCR and ADM is plotted versus the modulator concentration (FIG. 4), we can compare the relative potencies of the compounds as modulators of drug toxicity to the parental S180 cells.
# as §2, §3
# FIG. 4 represents the potency of the vinca alkaloid compounds as modulators of drug sensitivity in S180 cells. The enhancement of sensitivity was calculated as the sensitivity index=IC50 of the drug alone divided by the IC50 of the drug+modulator. The IC50s for ADM (o) VBL (Δ), or VCR (.quadrature.) were determined over a concentration range of each modulator from data such as those depicted in FIG. 3. The values presented were averaged from duplicate samples of two separate experiments, S.D. <15% of the mean.
SMILES,modulation of intrinsic cellular resistance to ADM and/or VCR (in words) ([1]; VCR),effect on the sensitivity of parental cells to VBL (in words) [1],MNTC at 72 h [3] [µM],"Maximum sensitization of parental cells by modulator, drug VCR (RCC-2 cells)","Modulator potency in MDR cells (minimal concentration restoring parental drug sensitivity), ADM (S180/A10 cells; ADM)","Modulator potency in MDR cells (minimal concentration restoring parental drug sensitivity), VBL (S180/A10 cells)",MNTC at 72 h [4] [µM],MNTC at 72 h [5] [µM],"Maximum sensitization of parental cells by modulator, drug ADM (RCC-5 cells)","Maximum sensitization of parental cells by modulator, drug VBL (RCC-5 cells)","Maximum sensitization of parental cells by modulator, drug VCR (RCC-5 cells)","Modulator potency in MDR cells (minimal concentration restoring parental drug sensitivity), VBL (S180/A3 cells) [µM]","Modulator potency in MDR cells (minimal concentration restoring parental drug sensitivity), VCR (S180/A3 cells)",IC50 [6] [µM],"Maximum sensitization of parental cells by modulator, drug ADM (S180 cells, parental)","Maximum sensitization of parental cells by modulator, drug VBL (S180 cells, parental)","Maximum sensitization of parental cells by modulator, drug VCR (S180 cells, parental)",other results
"CC[C@H]1C[C@@H]2CN(CCc3c([nH]c4ccccc34)[C@](C(=O)OC)(c3cc4c(cc3OC)N(C)[C@H]3[C@@](O)(C(=O)OC)[C@H](OC(C)=O)[C@]5(CC)C=CCN6CC[C@]43[C@@H]65)C2)C1 [analog n° 354, C-20'-deoxy-C-16', 20' epi VBL]",modulated intrinsic cellular resistance to ADM and/or VCR,less effect on the sensitivity of parental cells to VBL,5,4.0,40. μM,10.0 µM,5,20,5.3,1.9,18.0,1.7,10.0 µM,≥ 5,5.0,1.0,3.0,"enhancement of VCR cytotoxicity in the parental cell lines ([1]; VCR): 7-18 fold; range of resistance levels over which parental sensitivity was restored ([2]; VCR and ADM): 3-90 fold; Maximum sensitization of parental cells by modulator, drug ADM (RCC-2 cells): 1.9; Maximum sensitization of parental cells by modulator, drug VBL (RCC-2 cells): 1.2; reversal of high level ADM resistance (S180/A10 cells; ADM, 90-fold resistance, A10): 80%; Modulator potency in MDR cells (minimal concentration restoring parental drug sensitivity), VCR (S180/A10 cells; VCR, drug resistance level 17): 20.0 µM; Modulator potency in MDR cells (minimal concentration restoring parental drug sensitivity), ADM (S180/A3 cells; ADM, drug resistance level 15): 25. μM"
"CC[C@]12C=CCN3CC[C@@]4(c5cc([C@]6(C(=O)OC)C[C@@H]7CCCN(CCc8c6[nH]c6ccccc86)C7)c(OC)cc5N(C)[C@H]4[C@@](O)(C(=O)OC)[C@@H]1OC(C)=O)[C@@H]32 [analog n° 331, C-16' epi-C-20'-deoxy-C-20'-deethylvinblastine]",modulated intrinsic cellular resistance to ADM and/or VCR,less effect on the sensitivity of parental cells to VBL,20,2.0,no effect,34. μM,10,50,3.5,1.0,2.0,5.0,10. μM,≥ 5,3.4,1.0,2.5,"restoration of parental drug sensitivity in MDR cells (in words) ([2]; VCR, ADM): full restoration of parental drug sensitivity was achieved for VBL and low level VCR resistance, only"
